Source: patent US6617444B1, “Dinucleotide tetraphosphate crystals” (Yamasa Corporation, priority 1999, dated 2003)

What was measured:
[1] = Stability: acceleration test, sealed bottles stored at 60° C.; assay type: physicochemical; details: sealed bottle, 13 days at 60° C. (acceleration test)
Experimental: dCP4U.4Na crystals (decahydrate) and a freeze-dried product were individually placed in bottles, which were then sealed and stored for 13 days at 60° C. (acceleration test).

[2] = Hygroscopicity: standing at controlled temperature and relative humidity; assay type: physicochemical
Experimental: dCP4U.4Na crystals (decahydrate) having a water content of approximately 17.4% were allowed to stand for two days under the following conditions a), b) and c): a) 25° C. and a relative humidity of 57%; b) 25° C. and a relative humidity of 75%; c) 25° C. and a relative humidity of 93%. […] The crystals have proven to be stable and to have no hygroscopicity. In addition, the same crystals were allowed to stand for seven days under the following severe conditions d): d) 40° C. and a relative humidity of 75%.

[3] = two days, 25° C., relative humidity 75%
[4] = two days, 25° C., relative humidity 93%

decomposition on storage [1]	purity loss on storage [1]	change on standing under severe conditions ([2]; seven days, 40° C., relative humidity 75%)	Compound	decomposition or change in weight / state on standing (hygroscopicity) [2, 3]	decomposition or change in weight / state on standing (hygroscopicity) [2, 4]	decomposition or change in weight on standing (hygroscopicity) ([2]; two days, 25° C., relative humidity 57%)
partially decomposed	approximately 2.2%	–	Nc1ccn([C@H]2CC(O)[C@@H](COP(=O)(O)OP(=O)(O)OP(=O)(O)OP(=O)(O)OC[C@H]3O[C@@H](n4ccc(=O)[nH]c4=O)C(O)C3O)O2)c(=O)n1 (stereo partly drawn) [freeze-dried product, p^1-(2′-deoxycytidine 5′-)P^4-(uridine 5′-)tetraphosphate, reference compound]	assumed a mud-like state due to gradual increase in water content	assumed a mud-like state due to gradual increase in water content	–
No decomposition	–	No change was observed	Nc1ccn([C@H]2CC(O)[C@@H](COP(=O)(O)OP(=O)(O)OP(=O)(O)OP(=O)(O)OC[C@H]3O[C@@H](n4ccc(=O)[nH]c4=O)C(O)C3O)O2)c(=O)n1 (stereo partly drawn) [dCP4U.4Na crystals (decahydrate), p^1-(2′-deoxycytidine 5′-)P^4-(uridine 5′-)tetraphosphate]	No decomposition or change in weight was observed	No decomposition or change in weight was observed	No decomposition or change in weight was observed
